Laboratory results published in paper PMC5564622 (Oncotarget, 2017).
Where two headings read alike, the source gives them in different places.

How the values were obtained:
[1] = test system: HCT8/pcDNA3.1 cells; assay: cells; format: cell-based, human
Method: (§1) HCT8/pcDNA3.1 and HCT8/ABCB1 cells were established by transfecting HCT8 with empty pcDNA3.1 or vector containing the full length ABCB1, and were cultured in medium with 2 mg/ml G418.

[2] = test system: LoVo cells; assay: cells; format: cell-based, human
Method: (§2) The human colon cancer cell lines LoVo, HCT8, Caco-2 were obtained from the Cell Bank of the Chinese Academy of Sciences. DOX-selected ABCB1-overexpression LoVo/ADR, HCT8/ADR, Caco-2/ADR cell lines were purchased from Shanghai Yan Sheng Industrial Co., LTD. […] All the DOX-selected ABCB1-overexpression cells were seeded in a medium containing 1μM of DOX to maintain their drug resistance phenotype.

[3] = test system: HCT8/ADR cells (ABCB1-overexpressing)
Method: as §2

[4] = test system: HCT8/ABCB1 cells (ABCB1-transfected)
Method: as §1

[5] = test system: LoVo/ADR cells (ABCB1-overexpressing)
Method: as §2

[6] = test system: HCT8 cells; assay: cells; format: cell-based, human
Method: as §2

[7] = test system: LoVo/ADR cells (ABCB1-overexpressing); assay: cells; details: Homo sapiens
Method: as §2

[8] = test system: HCT8/ABCB1 cells (ABCB1-transfected); assay: cells; details: Homo sapiens
Method: as §1

[9] = test system: HCT8/ADR cells (ABCB1-overexpressing); assay: cells; details: Homo sapiens
Method: as §2

[10] = test system: MDR in colon cancer; assay: Preliminary experiment on Chansu ingredients and MDR; format: cell-based; details: six active ingredients of Chansu
[11] = Toxicity analysis in xenograft mice; format: in vivo, athymic nude mice (BALB/c-nu/nu)
Method: Normal tissues (heart, liver, lung, spleen, kidney, intestine) were harvested for H&E histology studies. Venous blood samples were collected in EDTA-coated tubes for hematology studies. Samples were analyzed for white blood cells (WBC), red blood cells (RBC), platelets (PLT), aspartate aminotransferase (AST), alanine aminotransferase (ALT) and blood urea nitrogen (BUN) in the clinical laboratory at our hospital.

[12] = test system: HCT8/ADR xenografts; assay: HCT8/ADR nude mouse xenograft model; details: for tumor size versus saline: q3d×5, alone
[13] = test system: ABCB1; assay: ABCB1-mediated drug transport assay (Caco-2 monolayer); details: human
Method: Caco-2 cells were seeded on a Costar 12-well Transwell Permeable Supports plates (0.4 μm pore size, 1.13 cm^2 of growth area, 12 mm diameter) at a density of 5.0×10^4cells/cm^2. Replaced the medium every other day and incubate plates at 37°C for 21 days. Transepithelial electrical resistance (TEER) and Lucifer yellow permeability (LY%) was measured to evaluate the integrity of the monolayer. […] Cells were washed 3 times with HBSS buffer and preincubated for 15 min. Test drugs were diluted in HBSS with 0.5 ml added to the apical side (A) or 1.5 ml to the basolateral side (B). […] Analyte concentrations were determined by Thermo Varioskan Flash.
The apparent permeability coefficient (Papp) was determined for both A to B and B to A directions by the following formula: Papp=dC/dt×V/AC0 in which A is the area of filter membrane, C0 represents the initial concentration of drug, dC/dt is the change of concentration of drug in the period of incubation time, and V is the volume of the receiver chamber. The efflux ratio (ER) was calculated from: ER=Papp(B to A)/Papp (A to B)

[14] = test system: LoVo/ADR, HCT8/ADR, HCT8/ABCB1 and Caco-2/ADR cells and parental cells; assay: CCK-8 cytotoxicity of BU (non-toxic concentrations); format: cell-based, human; details: MDR and parental cells
[15] = Homo sapiens, HCT-8, read-out: IC50 of MIT
[16] = Homo sapiens, HCT-8, 48 h, read-out: IC50 of DOX
[17] = HCT-8, 48 h, read-out: IC50 of DOX

5(6)-carboxy-2′,7′-dichlorofluorescein [CDCF]
IC50 ([1]; HCT8/pcDNA3.1, CDCF alone, read-out: IC50 of CDCF): 910 ± 180 µM | IC50 ([2]; CDCF alone, read-out: IC50 of CDCF): 1020 ± 110 µM | IC50 ([3]; read-out: IC50 of CDCF, HCT8/ADR, CDCF alone): 960 ± 160 µM | IC50 ([4]; read-out: IC50 of CDCF, HCT8/ABCB1, CDCF alone): 1080 ± 140 µM | IC50 ([5]; read-out: IC50 of CDCF, LoVo/ADR, CDCF alone): 1130 ± 50 µM | IC50 ([6]; HCT8, CDCF alone, read-out: IC50 of CDCF): 700 ± 100 µM

O=C1c2c(O)ccc(O)c2C(=O)c2c(NCCNCCO)ccc(NCCNCCO)c21 [MIT, mitoxantrone]
IC50 [1, 15]: 0.88 ± 0.28 µM | IC50 ([2]; Homo sapiens, read-out: IC50 of MIT): 1.05 ± 0.09 µM | IC50 ([7]; read-out: IC50 of MIT): 1.23 ± 0.08 µM | IC50 ([8]; HCT-8, read-out: IC50 of MIT): 1 ± 0.2 µM | IC50 ([9]; HCT-8, read-out: IC50 of MIT): 1.02 ± 0.28 µM | IC50 [6, 15]: 0.85 ± 0.15 µM

CC(=O)O[C@H]1[C@H]2O[C@]23[C@@H]2CC[C@@H]4C[C@@H](O)CC[C@]4(C)[C@H]2CC[C@]3(C)[C@H]1c1ccc(=O)oc1 [cinobufagin]
effect on MDR [10]: could effectively reverse MDR

COc1cccc2c1C(=O)c1c(O)c3c(c(O)c1C2=O)C[C@@](O)(C(=O)CO)C[C@@H]3O[C@H]1C[C@H](N)[C@H](O)[C@H](C)O1 [DOX, doxorubicin]
significant toxicity: deaths ([11]; DOX 0.5 mg/kg and DOX 1.0 mg/kg groups, with weight loss): 2 deaths out of 6 mice | alanine transaminase (ALT) and aspartate transaminase (AST) ([11]; high concentration DOX (0.5, 1.0 mg/kg)): significantly elevated | fold-reversal of MDR ([1]; HCT8/pcDNA3.1, DOX alone (reference)): 1.00 | IC50 [1, 16]: 0.67 ± 0.12 µM | fold-reversal of MDR ([2]; DOX alone (reference)): 1.00 | IC50 ([2]; Homo sapiens, 48 h, read-out: IC50 of DOX): 1.87 ± 0.15 µM | tumor size versus saline ([12]; DOX 0.1 mg/kg, i.p.): No significant difference | tumor growth inhibition ([12]; DOX 0.1, 0.5, 1.0 mg/kg, i.p., q3d×5): inhibit tumor growth with a concentration-dependent pattern | fold-reversal of MDR [3]: 7.20 ± 0.80 (1.00) | fold-reversal of MDR [4]: 13.35 ± 1.15 (1.00) | fold-reversal of MDR [5]: 16.28 ± 0.54 (1.00) | IC50 ([7]; 48 h, read-out: IC50 of DOX): 16.3 ± 0.54 µM | Papp A→B at 120 min, 20 μM [13]: 0.68 ± 0.18 ×10⁻⁶ cm/s | Papp B→A at 120 min, 20 μM [13]: 3.91 ± 0.68 ×10⁻⁶ cm/s | efflux ratio at 120 min, 20 μM [13]: 5.75 | IC50 [8, 17]: 13.3 ± 1.15 µM | IC50 [9, 17]: 7.2 ± 0.8 µM | fold-reversal of MDR ([6]; HCT8, DOX alone (reference)): 1.00 | IC50 [6, 16]: 0.55 ± 0.14 µM

C[C@]12CC[C@H](O)C[C@H]1CC[C@@H]1[C@@H]2CC[C@]2(C)[C@@H](c3ccc(=O)oc3)CC[C@]12O [BU, Bufalin]
toxicity on mice ([11]; BU 0.1mg/kg): did not induce any toxicity | tumor size versus saline ([12]; BU 0.1 mg/kg, i.p.): No significant difference | ABCB1 expression in tumor tissue (IHC) ([12]; HCT8/ADR xenografts, BU 0.1 mg/kg): inhibit ABCB1 expression in vivo | effect on MDR [10]: could effectively reverse MDR | non-toxic concentration (survival rate higher than 80%), maximum for reversal assays [14]: up to 20 nM
